Measured values reported in patent US6908899B2, “Pro-inflammatory fibrinopeptide” (U.S. Dept. of Veterans Affairs, priority 2001, dated 2005).

What was measured:
RA synovial fibroblasts [1] = assay: ICAM-1 cell-ELISA (O.D. 492); format: cell-based, human; conditions: for ICAM-1 O.D. 492 / ICAM-1 expression O.D. 492: overnight; for ICAM-1 O.D. 492: IL-1 0.5 ng/ml, GPRP or GPRP-amide 1 mg/ml, fibrinogen receptor peptide 0.1 mg/ml, FPA, FPB 10^−4 M; for ICAM-1 expression O.D. 492: fibrin clots 0.6 mg/ml or GPRP 1 mg/ml, mean ± SD, triplicate
Synovial cells [2] = assay: SAC competition assay by flow cytometry; format: binding, human
Excerpt: Thus, labeled peptide could facilitate the isolation, identification and characterization of its receptor, through standard immunological techniques such as immunohistochemistry, flow cytometry and immunoprecipitation.

[3] = system: synovial cells from patients with osteoarthritis (OA); assay: ICAM-1 ELISA (O.D. 492); format: cell-based, human; conditions: OA line; overnight; IL-1 0.5 ng/ml, GPRP or GPRP-amide 1 mg/ml, fibrinogen receptor peptide 0.1 mg/ml, FPA, FPB 10^−4 M
[4] = system: foreskin fibroblast cells; assay: In vitro T cell adhesion assay; format: cell-based, human; conditions: Foreskin line, ± SD, triplicate wells
RA synovial fibroblasts [5] = assay: IL-6 ELISA on cell supernatants; format: cell-based, human; conditions: overnight with GPRP
RA synovial cells = assay: PDTC inhibition of IL-1 and GPRP induction of ICAM-1 (ELISA); format: cell-based, human; conditions: PDTC pre-incubation 1.5 hours, IL-1 or GPRP overnight, ± SD, triplicate
Excerpt: (§1) NF-kappaB activation is already well known to affect a broad array of immediate-early gene products, such as TNF, interleukins, chemokines and colony stimulating factors; genes that are tightly regulated during inflammation and wound healing. […] PDTC is an anti-oxidant that prevents NF-kappaB activation and its translocation to the nucleus (Reference 26). […] [table]

OA synovial cells = assay: as above; format: cell-based, human; conditions: PDTC pre-incubation 1.5 hours, IL-1 or GPRP overnight, ± SD, triplicate
Excerpt: as §1

foreskin fibroblasts [6] = assay: GRO-alpha ELISA on cell culture supernatants; format: cell-based, human; conditions: for Increase in GRO-alpha secretion: foreskin FB
[7] = system: synovial fibroblast lines; assay: V-CAM-1 expression on synovial lines; format: cell-based, human; conditions: in response to the peptide
[8] = system: human lung fibroblastic cells; assay: Response of lung fibroblastic cells to the fibrinopeptide; format: cell-based
Excerpt: The peptide of the invention is believed to play a role in inflammatory lung diseases in which fibrin deposition is also known to occur. My research has proven that human lung fibroblastic cells are also responsive to the fibrinopeptide, and under its influence, will express selective pro-inflammatory molecules on the cell surface and will secrete pro-inflammatory mediators, such as cytokines and chemical attractants for immune cells.

[9] = system: human foreskin fibroblasts; assay: Flow cytometry analysis of ICAM-1 expression; format: cell-based; conditions: GPRP 1 mg/ml
RA synovial fibroblasts [10] = assay: GRO-alpha ELISA on cell culture supernatants; format: cell-based, human
Procedure: (§2) I used commercial ELISA kits to assay cell culture supernatants of RA fibroblasts that were cultured for both 24 and 48 hours with or without peptide.

[11] = system: RA derived synovial cells; assay: In vitro T cell adhesion assay; format: cell-based, human; conditions: ± SD, triplicate wells
fibrin polymerization = assay: Inhibition of fibrin polymerization; format: biochemical; conditions: applicant's studies of fibrin co-culture (Reference 19)
Excerpt: Synthetic peptides modeled after these “knobs” are able to inhibit fibrin polymerization by covering up the “holes” on the gamma chains and are commercially available.
For example, changing Gly1 to anything else destroys its inhibitory action as there appears to be no extra “room” for a side chain in the gamma chain “hole” into which it must fit. However, as noted below, amino acid Pro4 functions differently.

foreskin fibroblasts [12] = assay: IL-8 ELISA on cell culture supernatants; format: cell-based, human; conditions: 1 mg/ml GPRP
RA synovial cell lines = assay: Flow cytometry analysis of ICAM-1 expression; format: cell-based, human
[13] = system: OA derived synovial cells; assay: In vitro T cell adhesion assay; format: cell-based, human; conditions: OA line 15, ± SD, triplicate wells
foreskin fibroblasts [14] = assay: IL-6 ELISA on cell supernatants; format: cell-based, human; conditions: overnight with GPRP
synovial cells [15] = assay: RT-PCR of IL-6 gene expression; format: cell-based; conditions: versus controls
RA synovial fibroblasts [16] = assay: IL-8 ELISA on cell culture supernatants; format: cell-based, human; conditions: for IL-8: 1 mg/ml GPRP
Procedure: as §2

[17] = RA line 4, fibrin clot 0.6 mg/ml or GPRP 1 mg/ml
[18] = RA line 9, fibrin clot 0.6 mg/ml or GPRP 1 mg/ml

Sequence of fibrin polymerization (P02679 27-453): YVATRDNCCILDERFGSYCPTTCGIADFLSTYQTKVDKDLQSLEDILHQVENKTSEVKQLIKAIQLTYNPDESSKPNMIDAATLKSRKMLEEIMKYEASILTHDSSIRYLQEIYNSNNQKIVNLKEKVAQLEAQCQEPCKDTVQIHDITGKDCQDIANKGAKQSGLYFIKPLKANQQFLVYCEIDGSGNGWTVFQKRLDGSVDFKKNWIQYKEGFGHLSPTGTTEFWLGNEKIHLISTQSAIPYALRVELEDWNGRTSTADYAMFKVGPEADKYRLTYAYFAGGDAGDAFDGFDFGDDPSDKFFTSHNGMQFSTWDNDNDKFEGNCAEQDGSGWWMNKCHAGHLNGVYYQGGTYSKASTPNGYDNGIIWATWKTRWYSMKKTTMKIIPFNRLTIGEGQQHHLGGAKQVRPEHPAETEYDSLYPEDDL
Sequence of fibrin polymerization (P02671 20-639 isoform P02671-2 partner limits assumed): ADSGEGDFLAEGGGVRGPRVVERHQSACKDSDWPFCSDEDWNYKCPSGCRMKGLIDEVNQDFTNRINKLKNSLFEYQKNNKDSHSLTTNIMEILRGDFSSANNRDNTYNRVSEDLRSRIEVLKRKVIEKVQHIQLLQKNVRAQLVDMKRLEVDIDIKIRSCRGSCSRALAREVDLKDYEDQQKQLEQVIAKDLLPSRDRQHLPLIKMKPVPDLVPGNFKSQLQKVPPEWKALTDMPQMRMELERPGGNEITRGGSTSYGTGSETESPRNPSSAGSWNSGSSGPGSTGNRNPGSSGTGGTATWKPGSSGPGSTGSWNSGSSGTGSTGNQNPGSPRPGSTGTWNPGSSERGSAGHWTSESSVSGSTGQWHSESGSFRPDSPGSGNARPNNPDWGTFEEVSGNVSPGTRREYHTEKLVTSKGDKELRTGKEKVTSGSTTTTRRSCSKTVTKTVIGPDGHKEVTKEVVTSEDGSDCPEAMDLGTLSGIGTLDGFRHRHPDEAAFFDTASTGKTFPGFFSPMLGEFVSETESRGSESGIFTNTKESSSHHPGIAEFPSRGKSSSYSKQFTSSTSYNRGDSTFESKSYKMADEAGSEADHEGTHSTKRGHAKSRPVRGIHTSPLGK
Sequence of fibrin polymerization (P02675 45-491 partner limits assumed): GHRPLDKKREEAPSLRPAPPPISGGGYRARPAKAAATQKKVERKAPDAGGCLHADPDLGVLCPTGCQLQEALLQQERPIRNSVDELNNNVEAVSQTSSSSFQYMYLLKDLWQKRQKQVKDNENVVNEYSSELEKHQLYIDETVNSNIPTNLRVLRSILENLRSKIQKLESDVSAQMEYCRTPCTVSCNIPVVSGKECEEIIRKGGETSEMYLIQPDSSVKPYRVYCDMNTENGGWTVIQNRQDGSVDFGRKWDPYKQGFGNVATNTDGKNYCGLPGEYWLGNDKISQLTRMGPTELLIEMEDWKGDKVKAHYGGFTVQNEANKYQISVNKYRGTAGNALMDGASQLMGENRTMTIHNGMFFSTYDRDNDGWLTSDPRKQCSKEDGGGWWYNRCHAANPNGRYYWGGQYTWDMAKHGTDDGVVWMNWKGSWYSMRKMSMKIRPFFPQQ

Gly-Pro-Arg-Pro [GPRP]
ICAM-1 induction (RA synovial fibroblasts [1]; GPRP at 0.01 mg/ml): not to be significant | ICAM-1 induction (RA synovial fibroblasts [1]; GPRP at 1.0, 0.5, and 0.1 mg/ml): significant induction | ICAM-1 O.D. 492 (RA synovial fibroblasts [1]; RA line 1): 1.38 ± .16 | ICAM-1 O.D. 492 (RA synovial fibroblasts [1]; RA line 2): 0.98 ± .03 | ICAM-1 expression O.D. 492 (RA synovial fibroblasts [1]; RA line 4): 1.04 ± .02 | ICAM-1 expression O.D. 492 (RA synovial fibroblasts [1]; RA line 5): 1.10 ± .03 | ICAM-1 expression O.D. 492 (RA synovial fibroblasts [1]; RA line 9): 0.98 ± .15 | ICAM-1 OD 492 (RA synovial fibroblasts [1]; RA#11, GPRP 0.10 mg/ml overnight): .37 ± 0 | ICAM-1 OD 492 (RA synovial fibroblasts [1]; RA#11, GPRP 0.30 mg/ml overnight): .46 ± .05 | ICAM-1 OD 492 (RA synovial fibroblasts [1]; RA#11, GPRP 1.00 mg/ml overnight): .59 ± .05 | ICAM-1 OD 492 (RA synovial fibroblasts [1]; RA#11, GPRP .001 mg/ml overnight): .24 ± .05 | ICAM-1 OD 492 (RA synovial fibroblasts [1]; RA#11, GPRP .003 mg/ml overnight): .25 ± .03 | ICAM-1 OD 492 (RA synovial fibroblasts [1]; RA#11, GPRP .010 mg/ml overnight): .24 ± .05 | ICAM-1 OD 492 (RA synovial fibroblasts [1]; RA#11, GPRP .030 mg/ml overnight): .31 ± .02 | ICAM-1 OD 492 (RA synovial fibroblasts [1]; RA#12, GPRP 0.10 mg/ml overnight): 0.76 ± .03 | ICAM-1 OD 492 (RA synovial fibroblasts [1]; RA#12, GPRP 0.30 mg/ml overnight): 1.09 ± .06 | ICAM-1 OD 492 (RA synovial fibroblasts [1]; RA#12, GPRP 1.00 mg/ml overnight): 1.42 ± .08 | ICAM-1 OD 492 (RA synovial fibroblasts [1]; RA#12, GPRP .001 mg/ml overnight): 0.51 ± .01 | ICAM-1 OD 492 (RA synovial fibroblasts [1]; RA#12, GPRP .003 mg/ml overnight): 0.53 ± .01 | ICAM-1 OD 492 (RA synovial fibroblasts [1]; RA#12, GPRP .010 mg/ml overnight): 0.57 ± .02 | ICAM-1 OD 492 (RA synovial fibroblasts [1]; RA#12, GPRP .030 mg/ml overnight): 0.62 ± .03 | ICAM-1 expression (RA synovial fibroblasts [1]; more than seven different RA fibroblast lines): consistently increased expression of ICAM-1 | Competition with biotin-labeled SAC for binding to human synovial fibroblasts (Synovial cells [2]; unlabeled competitor): can compete | Mean (fluorescence of bound SAC[KBtn]) (Synovial cells [2]; unlabeled competitor 2.5 mg for 3 hours, then labeled SAC[KBtn] for 1 hour, Avidin-FITC): 33.58 | ICAM-1 O.D. 492 [3]: 0.85 ± .08 | Adherent T cell numbers ([4]; GPRP 0.1 mg/ml overnight): 51 ± 3 | Adherent T cell numbers ([4]; GPRP 1 mg/ml overnight): 54 ± 11 | IL-6 (RA synovial fibroblasts [5]; RA #1): 2400 pg/mL | IL-6 INCREASE over control (RA synovial fibroblasts [5]; RA #1): 1.50X | IL-6 (RA synovial fibroblasts [5]; RA #11): 1700 pg/mL | IL-6 INCREASE over control (RA synovial fibroblasts [5]; RA #11): 6.18X | IL-6 (RA synovial fibroblasts [5]; RA #16): 11100 pg/mL | IL-6 INCREASE over control (RA synovial fibroblasts [5]; RA #16): 3.70X | IL-6 (RA synovial fibroblasts [5]; RA #18): 940 pg/mL | IL-6 INCREASE over control (RA synovial fibroblasts [5]; RA #18): 1.90X | ICAM-1 O.D. 492 (RA synovial cells; RA line 5): 1.83 ± .08 | ICAM-1 O.D. 492 (RA synovial cells; RA line 6): 1.67 ± .06 | ICAM-1 O.D. 492 (OA synovial cells; OA line 2): 1.66 ± .05 | ICAM-1 O.D. 492 (OA synovial cells; OA line 8): 1.30 ± .09 | GRO-alpha (foreskin fibroblasts [6]; Foreskin fibroblasts, 1 mg/ml GPRP): 470 pg/mL | GRO-alpha Fold Increase (foreskin fibroblasts [6]; Foreskin fibroblasts, 1 mg/ml GPRP, versus control): 1.2X | Increase in GRO-alpha secretion (foreskin fibroblasts [6]; forty-eight hours): 1.2 fold | Increase in GRO-alpha secretion (foreskin fibroblasts [6]; twenty-four hours): 1.2 fold | Lines tested that upregulated V-CAM-1 expression [7]: about 50 % of the lines tested | Responsiveness of lung fibroblastic cells (surface pro-inflammatory molecules, secreted mediators) [8]: responsive | ICAM-1 % positive [9]: 86.7% | ICAM-1 MFC [9]: 2.26 | GRO-alpha Fold Increase (RA synovial fibroblasts [10]; RA fibroblasts, visual observation of developed ELISA plates): at least as much as was seen for IL-8 | GRO-alpha (RA synovial fibroblasts [10]; RA line 8, 1 mg/ml GPRP): 8500 pg/mL | GRO-alpha Fold Increase (RA synovial fibroblasts [10]; RA line 8, 1 mg/ml GPRP, versus control): 21X | Adherent T cell numbers ([11]; RA line 7, GPRP 0.1 mg/ml overnight): 184 ± 58 | Adherent T cell numbers ([11]; RA line 7, GPRP 1 mg/ml overnight): 153 ± 54 | Adherent T cell numbers ([11]; RA line 8, GPRP 0.1 mg/ml overnight): 99 ± 18 | Adherent T cell numbers ([11]; RA line 8, GPRP 1 mg/ml overnight): 97 ± 10 | Inhibition of fibrin polymerization (fibrin polymerization): good inhibitor of fibrin polymerization | IL-8 (foreskin fibroblasts [12]; 24 hr): 1,840 pg/ml | IL-8 (foreskin fibroblasts [12]; 48 hr): 1,200 pg/ml | ICAM-1 % positive (RA synovial cell lines; [17]): 87.0% | ICAM-1 MFC (RA synovial cell lines; [17]): 2.73 | ICAM-1 % positive (RA synovial cell lines; RA line 5, GPRP 1 mg/ml): 74.5% | ICAM-1 MFC (RA synovial cell lines; RA line 5, GPRP 1 mg/ml): 2.00 | ICAM-1 % positive (RA synovial cell lines; RA line 6, GPRP 1 mg/ml): 95.0% | ICAM-1 MFC (RA synovial cell lines; RA line 6, GPRP 1 mg/ml): 9.19 | ICAM-1 % positive (RA synovial cell lines; [18]): 80.1% | ICAM-1 MFC (RA synovial cell lines; [18]): 3.62 | Adherent T cell numbers ([13]; GPRP 0.1 mg/ml overnight): 92 ± 27 | Adherent T cell numbers ([13]; GPRP 1 mg/ml overnight): 113 ± 44 | IL-6 (foreskin fibroblasts [14]): 215 pg/mL | IL-6 gene expression (synovial cells [15]): significantly more IL-6 gene expression than controls | Increase of IL-8 production (RA synovial fibroblasts [16]; RA Line 1, forty-eight hours): fifteen | Increase of IL-8 production (RA synovial fibroblasts [16]; RA Line 1, twenty-four hours): 12.6 fold | Increase of IL-8 production (RA synovial fibroblasts [16]; RA Line 2, forty-eight hours): ten | Increase of IL-8 production (RA synovial fibroblasts [16]; RA Line 2, twenty-four hours): ten | IL-8 (RA synovial fibroblasts [16]; RA line 1, 24 hr): 16,000 pg/ml | IL-8 (RA synovial fibroblasts [16]; RA line 1, 48 hr): 17,500 pg/ml | IL-8 (RA synovial fibroblasts [16]; RA line 4, 24 hr): 9,000 pg/ml | IL-8 (RA synovial fibroblasts [16]; RA line 4, 48 hr): 6,800 pg/ml
